Results published in BindingDB's records for doi:10.1016/S0960-894X(01)80832-5 (1994).

What was measured:
[1] = target: Gastrin/cholecystokinin type B receptor (Cavia porcellus); assay: Inhibitory activity against cholecystokinin-B (CCK-B) receptor in cortex of male hartley guinea pig.
[2] = target: Gastrin/cholecystokinin type B receptor (Cavia porcellus); assay: as above; remark: listed apart in the source

IC50 [1] [nM] | IC50 [2] [nM] | SMILES
31 |  | Cc1cccc(NC(=O)N[C@@H]2C[C@H](c3ccccc3)C[C@H](c3cccc(F)c3)N(CC(=O)NC(C)(C)C)C2=O)c1 [N-tert-Butyl-2-[(3R,5S,7R)-7-(3-fluoro-phenyl)-2-oxo-5-phenyl-3-(3-m-tolyl-ureido)-azepan-1-yl]-acetamide]
203 |  | Cc1cccc(NC(=O)N[C@@H]2C[C@H](c3ccccc3)C[C@H](c3ccc(F)cc3)N(CC(=O)NC(C)(C)C)C2=O)c1 [N-tert-Butyl-2-[(3R,5S,7R)-7-(4-fluoro-phenyl)-2-oxo-5-phenyl-3-(3-m-tolyl-ureido)-azepan-1-yl]-acetamide]
38 |  | CCc1cccc(NC(=O)N[C@@H]2C[C@H](c3ccccc3C)C[C@H](c3ccccc3)N(CC(=O)NC3(C)CCCCC3)C2=O)c1 [2-{(3R,5S,7R)-3-[3-(3-Ethyl-phenyl)-ureido]-2-oxo-7-phenyl-5-o-tolyl-azepan-1-yl}-N-(1-methyl-cyclohexyl)-acetamide]
453 |  | Cc1cccc(NC(=O)N[C@@H]2C[C@H](c3ccccc3C)C[C@H](c3ccccc3)N(CC(=O)NC(C(C)(C)C)C(C)(C)C)C2=O)c1 [N-(1-tert-Butyl-2,2-dimethyl-propyl)-2-[(3R,5S,7R)-2-oxo-7-phenyl-5-o-tolyl-3-(3-m-tolyl-ureido)-azepan-1-yl]-acetamide]
28 |  | Cc1cccc(NC(=O)N[C@@H]2C[C@H](c3ccccc3C)C[C@H](c3ccccc3)N(CC(=O)Nc3ccccc3Cl)C2=O)c1 [N-(2-Chloro-phenyl)-2-[(3R,5S,7R)-2-oxo-7-phenyl-5-o-tolyl-3-(3-m-tolyl-ureido)-azepan-1-yl]-acetamide]
117 |  | Cc1ccccc1[C@@H]1C[C@H](c2ccccc2)N(CC(=O)NC(C)(C)C)C(=O)[C@H](NC(=O)Nc2ccc(Cl)cc2)C1 [N-tert-Butyl-2-{(3R,5S,7R)-3-[3-(4-chloro-phenyl)-ureido]-2-oxo-7-phenyl-5-o-tolyl-azepan-1-yl}-acetamide]
134 |  | Cc1cccc(NC(=O)N[C@@H]2C[C@H](c3ccccc3C)C[C@H](c3ccccc3)N(CC(=O)NC3(C)CCCCC3)C2=O)c1 [N-(1-Methyl-cyclohexyl)-2-[(3R,5S,7R)-2-oxo-7-phenyl-5-o-tolyl-3-(3-m-tolyl-ureido)-azepan-1-yl]-acetamide]
190 |  | Cc1ccc([C@@H]2C[C@H](c3ccccc3)N(CC(=O)NC(C)(C)C)C(=O)[C@H](NC(=O)Nc3cccc(C)c3)C2)cc1 [N-tert-Butyl-2-[(3R,5S,7R)-2-oxo-7-phenyl-5-p-tolyl-3-(3-m-tolyl-ureido)-azepan-1-yl]-acetamide]
25 |  | CCc1ccccc1[C@@H]1C[C@H](c2ccccc2)N(CC(=O)NC(C)(C)C)C(=O)[C@H](NC(=O)Nc2cccc(C)c2)C1 [N-tert-Butyl-2-[(3R,5S,7R)-5-(2-ethyl-phenyl)-2-oxo-7-phenyl-3-(3-m-tolyl-ureido)-azepan-1-yl]-acetamide]
71 |  | Cc1cccc(NC(=O)N[C@@H]2C[C@H](c3ccccc3C)C[C@H](c3ccccc3)N(CC(=O)Nc3ccccc3C)C2=O)c1 [2-[(3R,5S,7R)-2-Oxo-7-phenyl-5-o-tolyl-3-(3-m-tolyl-ureido)-azepan-1-yl]-N-o-tolyl-acetamide]
7.8 | 527 | Cc1cccc(NC(=O)N[C@@H]2C[C@H](c3ccccc3C)C[C@H](c3ccccc3)N(CC(=O)NC(C)(C)C)C2=O)c1 [N-tert-Butyl-2-[(3R,5S,7R)-2-oxo-7-phenyl-5-o-tolyl-3-(3-m-tolyl-ureido)-azepan-1-yl]-acetamide]
36 |  | Cc1ccccc1[C@@H]1C[C@H](c2ccccc2)N(CC(=O)NC(C)(C)C)C(=O)[C@H](NC(=O)Nc2cccc(F)c2)C1 [N-tert-Butyl-2-{(3R,5S,7R)-3-[3-(3-fluoro-phenyl)-ureido]-2-oxo-7-phenyl-5-o-tolyl-azepan-1-yl}-acetamide]
28 |  | COc1ccccc1[C@@H]1C[C@H](c2ccccc2)N(CC(=O)NC(C)(C)C)C(=O)[C@H](NC(=O)Nc2cccc(C)c2)C1 [N-tert-Butyl-2-[(3R,5S,7R)-5-(2-methoxy-phenyl)-2-oxo-7-phenyl-3-(3-m-tolyl-ureido)-azepan-1-yl]-acetamide]
87 |  | COc1ccc(NC(=O)N[C@@H]2C[C@H](c3ccccc3C)C[C@H](c3ccccc3)N(CC(=O)NC(C)(C)C)C2=O)cc1 [N-tert-Butyl-2-{(3R,5S,7R)-3-[3-(4-methoxy-phenyl)-ureido]-2-oxo-7-phenyl-5-o-tolyl-azepan-1-yl}-acetamide]
28 |  | Cc1ccccc1[C@@H]1C[C@H](c2ccccc2)N(CC(=O)NC(C)(C)C)C(=O)[C@H](NC(=O)Nc2cccc(C(F)(F)F)c2)C1 [N-tert-Butyl-2-{(3R,5S,7R)-2-oxo-7-phenyl-5-o-tolyl-3-[3-(3-trifluoromethyl-phenyl)-ureido]-azepan-1-yl}-acetamide]
141 |  | Cc1cccc(NC(=O)N[C@@H]2C[C@H](c3ccccc3)C[C@H](c3cccc(C)c3)N(CC(=O)NC(C)(C)C)C2=O)c1 [N-tert-Butyl-2-[(3R,5S,7R)-2-oxo-5-phenyl-7-m-tolyl-3-(3-m-tolyl-ureido)-azepan-1-yl]-acetamide]
560 |  | Cc1ccc([C@H]2C[C@@H](c3ccccc3)C[C@@H](NC(=O)Nc3cccc(C)c3)C(=O)N2CC(=O)NC(C)(C)C)cc1 [N-tert-Butyl-2-[(3R,5S,7R)-2-oxo-5-phenyl-7-p-tolyl-3-(3-m-tolyl-ureido)-azepan-1-yl]-acetamide]
65 |  | Cc1cccc(NC(=O)N[C@@H]2C[C@H](c3ccc(F)cc3)C[C@H](c3ccccc3)N(CC(=O)NC(C)(C)C)C2=O)c1 [N-tert-Butyl-2-[(3R,5S,7R)-5-(4-fluoro-phenyl)-2-oxo-7-phenyl-3-(3-m-tolyl-ureido)-azepan-1-yl]-acetamide]
10 |  | Cc1ccccc1[C@@H]1C[C@H](c2ccccc2)N(CC(=O)NC(C)(C)C)C(=O)[C@H](NC(=O)Nc2cccc([N+](=O)[O-])c2)C1 [N-tert-Butyl-2-{(3R,5S,7R)-3-[3-(3-nitro-phenyl)-ureido]-2-oxo-7-phenyl-5-o-tolyl-azepan-1-yl}-acetamide]
40 |  | Cc1ccc(NC(=O)CN2C(=O)[C@H](NC(=O)Nc3cccc(C)c3)C[C@H](c3ccccc3C)C[C@@H]2c2ccccc2)cc1 [2-[(3R,5S,7R)-2-Oxo-7-phenyl-5-o-tolyl-3-(3-m-tolyl-ureido)-azepan-1-yl]-N-p-tolyl-acetamide]
